Measured values reported in patent US5302610A, “Renal-selective biphenylmethyl imidazole angiotensin II antagonists for treatment of hypertension” (G. D. Searle & Co., priority 1991, dated 1994).

Experiments:
[1] = tested on: response to angiotensin II (mean arterial pressure); experiment: Assay E: Mean Arterial Pressure, acute administration with AII infusion; type: in vivo, male Sprague-Dawley rats, conscious; details: for Mean Arterial Pressure: n = 6, means±SE
Method: antagonist compound (Ex. #5) and a glutamyl conjugate (Ex. #81) of the Ex. #5 AII antagonist compound to determine the renal selectivity of the conjugate. Male Sprague-Dawley rats (300-350 g body weight) had catheters implanted into the femoral artery and vein under chloral hydrate anesthesia (400 mg/kg, i.p.). After 2 to 4 days of recovery, on the experimental day, a urinary bladder catheter was implanted under methohexital anesthesia (50 mg/kg, i.p.). Rats were placed in a restraint device to allow for urine collection and mean arterial pressure measurements. After 1-2 hours of recovery, in conscious rats, an isotonic saline infusion (50 μl/min) was started and continued for the duration of the experiment. After one hour equilibration to the saline infusion, a 20 minute control urine and mean arterial pressure collection were obtained. Then angiotensin II was infused at 20 ng/min for 25 minutes. After 5 minutes of angiotensin II infusion, a 20 minute experimental collection was made. Finally, 5 minutes after the end of angiotensin II infusion, a 20 minute recovery collection was obtained. In separate groups of rats, vehicle (0.3 ml isotonic saline, i.v. bolus), Example #5 angiotensin II antagonist compound (100 mg/kg, i.v. bolus), or Example #81 conjugate (100 mg/kg, i.v. bolus) was administered 1-2 minutes prior to onset of angiotensin II infusion. […] Results are shown in Tables XIII and XIV and also in FIGS. 3 and 4. Data are presented as means±SE. Repeated measures analysis of variance was used for main effects and interactions and Tukey's HSD test was used for pairwise comparisons among means. Statistical significance was defined as p<0.05.

[2] = target: smooth muscle angiotensin II receptor; experiment: Assay A: Angiotensin II Binding Activity; details: rat uterine membranes, 25° C., 60 min; read-out: Assay A IC50 (50% displacement of specifically bound 125I-AII)
Method: Other chemicals were obtained from Sigma Chemical Co. This assay was carried out according to the method of Douglas et al [Endocrinology, 106, 120-124 (1980)]. Rat uterine membranes were prepared from fresh tissue. All procedures were carried out at 4° C. Uteri were stripped of fat and homogenized in phosphate-buffered saline at pH 7.4 containing 5 mM EDTA. The homogenate was centrifuged at 1500×g for 20 min., and the supernatant was recentrifuged at 100,000×g for 60 min. The pellet was resuspended in buffer consisting of 2 mM EDTA and 50 mM Tris-HCl (pH 7.5) to a final protein concentration of 4 mg/ml. […] The reaction was initiated by the addition of membrane protein and the mixture was incubated at 25° C. for 60 min. The incubation was terminated with ice-cold 50 mM Tris-HCl (pH 7.5) and the mixture was filtered to separate membrane-bound labelled peptide from the free ligand. The incubation tube and filter were washed with ice-cold buffer. Filters were assayed for radioactivity in a Micromedic gamma counter. Nonspecific binding was defined as binding in the presence of 10 μM of unlabelled AII. Specific binding was calculated as total binding minus nonspecific binding. […] Binding data were analyzed by a nonlinear least-squares curve fitting program.

[3] = tested on: AII receptor; experiment: Assay C: In Vivo Intraduodenal Pressor Assay Response for AII Antagonists; set-up: species or system male Sprague-Dawley rats
Method: The in vivo AII receptor antagonist activity of Example #5 compound was examined in ganglion-blocked male Sprague-Dawley rats (Harlan Sprague-Dawley, Inc.), weighing 300-400 g, anesthetized with 100 mg/kg i.p. Inactin. Catheters (PE-50) were implanted in a femoral artery and vein to measure mean arterial pressure and to administer compounds, respectively. A tracheal catheter maintained airway patency. For intravenous experiments, autonomic neurotransmission was blocked by treatment with mecamylamine (3 mg/kg i.v.) and atropine (400 μg/kg i.v.). AII (30 ng/kg i.v., 20-25 μl volume) was administered four times at 10 minute intervals to establish a reproducible control pressor response. Example #5 compound was then administered at 1, 3 and 10 mg/kg in separate groups of rats as an intravenous bolus (0.2 ml volume) before rechallenging with AII (30 ng/kg, 20-25 μl volume) for the following 2 hours. For intraduodenal experiments, rats were anesthetized as above, but ganglion blockade was not performed. AII was administered at 100 ng/kg i.v. (20-25 μl volume), and was administered at 10, 30 and 100 mg/kg in separate groups of rats as an intraduodenal bolus (0.2 ml volume). […] The response to AII was calculated as percent of the control response and then the percent inhibition was calculated as 100 minus the percent control response. Duration of action of a test compound was defined as the time from peak percent inhibition to 50% of peak. The test compound was tested in two rats and the values for the two rats were averaged.

- IC50 [2]: 216 ± 45 nM
Structure (SMILES): CCCCc1nc(Cl)c(CO)n1Cc1ccc(-c2ccccc2C(=O)O)cc1 [Example 5]
- Mean Arterial Pressure ([1]; 100 mg/kg i.v. bolus, Recovery after AII infusion): 124 ± 7 mm Hg
- Mean Arterial Pressure ([1]; 100 mg/kg i.v. bolus, during AII infusion 20 ng/min, * in table): 125 ± 7 mm Hg
- mean arterial pressure response to angiotensin II ([1]; 100 mg/kg, i.v. bolus, AII 20 ng/min): prevented both responses to angiotensin II
- Mean Arterial Pressure ([1]; Control period (before dosing)): 123 ± 5 mm Hg
- % Control of AII Pressor Response ([3]; 10 mg/kg intraduodenal, 1 min): 100%
- % Control of AII Pressor Response ([3]; 10 mg/kg intraduodenal, 5 min): 94%
- % Control of AII Pressor Response ([3]; 10 mg/kg intraduodenal, 10 min): 99%
- % Control of AII Pressor Response ([3]; 10 mg/kg intraduodenal, 20 min): 85%
- % Control of AII Pressor Response ([3]; 10 mg/kg intraduodenal, 30 min): 91%
- % Control of AII Pressor Response ([3]; 10 mg/kg intraduodenal, 40 min): 91%
- % Control of AII Pressor Response ([3]; 10 mg/kg intraduodenal, 50 min): 95%
- % Control of AII Pressor Response ([3]; 10 mg/kg intraduodenal, 60 min): 93%
- % Control of AII Pressor Response ([3]; 10 mg/kg intraduodenal, 75 min): 95%
- % Control of AII Pressor Response ([3]; 30 mg/kg intraduodenal, 1 min): 48%
- % Control of AII Pressor Response ([3]; 30 mg/kg intraduodenal, 5 min): 48%
- % Control of AII Pressor Response ([3]; 30 mg/kg intraduodenal, 10 min): 44%
- % Control of AII Pressor Response ([3]; 30 mg/kg intraduodenal, 20 min): 28%
- % Control of AII Pressor Response ([3]; 30 mg/kg intraduodenal, 30 min): 34%
- % Control of AII Pressor Response ([3]; 30 mg/kg intraduodenal, 40 min): 42%
- % Control of AII Pressor Response ([3]; 30 mg/kg intraduodenal, 50 min): 41%
- % Control of AII Pressor Response ([3]; 30 mg/kg intraduodenal, 60 min): 53%
- % Control of AII Pressor Response ([3]; 30 mg/kg intraduodenal, 75 min): 74%
- % Control of AII Pressor Response ([3]; 100 mg/kg intraduodenal, 1 min): 28%
- % Control of AII Pressor Response ([3]; 100 mg/kg intraduodenal, 5 min): 19%
- % Control of AII Pressor Response ([3]; 100 mg/kg intraduodenal, 10 min): 15%
- % Control of AII Pressor Response ([3]; 100 mg/kg intraduodenal, 20 min): 14%
- % Control of AII Pressor Response ([3]; 100 mg/kg intraduodenal, 30 min): 9%
- % Control of AII Pressor Response ([3]; 100 mg/kg intraduodenal, 40 min): 5%
- % Control of AII Pressor Response ([3]; 100 mg/kg intraduodenal, 50 min): 13%
- % Control of AII Pressor Response ([3]; 100 mg/kg intraduodenal, 60 min): 10%
- % Control of AII Pressor Response ([3]; 100 mg/kg intraduodenal, 75 min): 13%
